In patent publication US20030171406A1, “Medicinal compositions containing propenone derivatives” (priority 2000, published 2003) one finds EC50 data, which are given here for four compounds.

Format in all cases: cell-based
The test system of one experiment is HIV-1 NL432. The experiment can be described thus: Antiviral assay in infected Molt-4 cells, virus measured by RT activity. The conditions noted are these: read-out: EC50 HIV-1 NL432. How it is done:
(§1) (1) Molt-4 cells (2×10^6 cells) were infected with HIV-1 NL432 (4×10^6 cpm), HIV-2 Rod (8×10^6 cpm), SIVmac MA239 (8×10^6 cpm) and SIVagm SA212 (8×10^6 cpm), and incubated for 1 hr at room temperature.
(§2) {circle over (1)} Preparation of HIV-1 virus: SW480 cells were cultured in DMEM medium supplemented with 10% fetal bovine serum using 25 cm^2 flask. HIV-1 infectious molecular DNA (40 μg), pNL432, transfected to the cells by calcium phosphate coprecipitation method, and the supernatant (2 mL) at 2-3 days post-transfection was infected to M8166 cells (1×10^6 cells). The cells were cultured in 10 mL RPMI medium supplemented with 10% fetal bovine serum in CO2 incubator at 37° C. After apparent giant cells were observed, the cells were removed by centrifugation and then the supernatant was filtrated by 0.45 μm filter, measured RT activity, and stored at −80° C. as HIV-1 stock virus.
(§3) {circle over (2)} The cells were washed twice to remove the viruses and suspended in 10 mL RPMI medium supplemented with 10% fetal bovine serum. The infected cells (100 μL) were plated in 96-well microtiter plates containing with the serial 5 fold dilution of compounds (100 μL) and cultured in CO2 incubator at 37° C.
(§4) {circle over (3)} The supernatant at 5 days postinfection was harvested and measured the amount of the virus by RT activity.
(§5) Preparation of the solution for RT assay:
(§6) A reaction mixture (90 μL) were contained 50 mM Tris-HCl, pH 8.3, 150 mM KCl, 10 mM MgCl2, 0.1% Nonidet P-40, 10 mM DTT (dithiothreitol), 5 μg/mL poly(rA), 5 μg/mL (dT)12-18 and 1 μCi [^3H] dTTP at final concentration after mixture of a sample (10 μL).
(§7) The procedure of RT assay:
(§8) 1. 10 μL of sample was plated to 3 wells of 96-well microtiter plate (triplicate assay).
(§9) 2. Reaction mixture (90 μL) chilled at 4° C. was added to each well, mixed and then incubate at 37° C. for 3 hrs.
(§10) 3. After incubation, the plate was chilled on ice, and passed through a DEAE-Filtermat using cell harvester. The filter was washed with 4.5% Na2HPO4 (20 see) and H2O (10 sec).
(§11) 4. The filter was dried at 95° C. for 15 min.
(§12) 5. 10 mL of scintilator was added and sealed.
(§13) 6. Radioactivity was measured by LKB Beta Plate scintillation spectroscopy.
(§14) 7. RT activity (cpm/mL) was calculated from average of three wells.

A further experiment has as its system HIV-2 Rod. The experiment is described as above. The conditions noted are these: read-out: EC50 HIV-2 ROD. How it is done:
as §1
{circle over (2)} Preparation of HIV-2 virus: HIV-2 Rod was infected to M8166 cells (1×10^6 cells). The cells were cultured in 10 mL RPMI medium supplemented with 10% fetal bovine serum in CO2 incubator at 37° C. After apparent giant cells were observed, the cells were removed by centrifugation and then the supernatant was filtrated by 0.45 μm filter, measured RT activity, and stored at −80° C. as HIV-2 stock virus.
as §3, §4, §5, §6, §7, §8, §9, §10, §11, §12, §13, §14

The next experiment relates to SIVmac MA239. The experiment is described as above. The conditions noted are these: 120 h, RT activity of supernatant at 5 days postinfection. How it is done:
as §1
as §2, with “over (3)}” for “over (1)}”, “of SIVmac” for “of HIV-1”, “flask. SIVmac MA239” for “flask. HIV-1”, “μg), pMA239,” for “μg), pNL432,”, “to CEMX174” for “to M8166”, “as SIVmac” for “as HIV-1”
as §3, §4, §5, §6, §7, §8, §9, §10, §11, §12, §13, §14

Another experiment concerns SIVagm SA212. Described as above. The conditions noted are these: 120 h, RT activity of supernatant at 5 days postinfection. How it is done:
as §1
{circle over (4)} Preparation of SIVagm virus: SW480 cells were cultured in DMEM medium supplemented with 10% fetal bovine serum using 25 cm^2 flask. SIVagm SA212 infectious molecular DNA (40 μg), pSA212, transfected to the cells by calcium phosphate coprecipitation methods, and the supernatant (2 mL) at 2-3 days post-transfection was infected to M8166 cells (1×10^6 cells). The cells were cultured in 10 mL RPMI medium supplemented with 10% fetal bovine serum in CO2 incubator at 37° C. Every 3 days, the cells were separated from the supernatant by centrifugation and continued culture with new culture medium. The each supernatant was filtrated by 0.45 μm filter, measured RT activity, and stored at −80° C. as SIVagm stock virus.
as §3, §4, §5, §6, §7, §8, §9, §10, §11, §12, §13, §14

The test system of another experiment is HIV (HTLV-IIIB strain). The experiment can be described thus: MTT assay, MT-4 cells infected with HIV. The conditions noted are these: Human immunodeficiency virus 1, MT4, 120 h, 5 days, inhibits 50% of cell damage caused by virus, read-out: EC50. The procedure:
The inhibitory effects of each anti-human immunodeficiency virus active substance against human immunodeficiency virus have been determined by MTT assay described below.
(1) Human T cell strain Molt-4 clone 8 persistently infected HIV (HTLV-IIIB strain) was cultivated in RPMI-1640 medium supplemented with 10% fatal bovine serum, and supernatant was filtered, measured RT activity, and stored at −80° C. On the other hand, each human anti-immunodeficiency virus active substance was diluted to fixed concentration in culture medium, they were plated to 96-well microtiter plate. Subsequently, 100 μL (3.5×10^4 cells) of MT-4 cell suspension was plated to 96-well microtiter plate, and then above mentioned supernatant containing HIV, which was diluted by culture medium, was added 50 μL (60 pfu (plaque forming unit.)) to 96-well microtiter plate.
(2) After cultivation at 37° C. for 5 days in CO2 incubator, into all well was added 30 μL per well 3-(4,5-[…])-2,5-diphenyltetrazolium bromide (MTT) 5 mg/mL) and PBS, and then incubated for 1 h.
In this time, alive cells reduced MTT and formazan was precipitated, therefore, 150 μL of cell supernatants were removed from all wells, and then 150 μL of lysate (10% triton X-100 and 0.4% (v/v) HCl-containing isopropanol) was added, and formazan was eluated on a plate shaker.
On the technique in general: Formazan colour is commonly taken as a measure of viable cells.

For experiment [1], the system named is feline immunodeficiency virus (FIV TM-2 strain). The experiment can be described thus: FIV antiviral assay in MYA-1 feline T cells, RT activity. The conditions noted are these: T-cell, 240 h, FIV TM-2, MYA-1 cells, RT activity at 10 days postinfection. How it is done:
(1) The serial 5 fold diluted samples were plated in 24 well microtiter plate. Feline T-cell lines (MYA-1 cells: 4×10^5 cells/well) and feline immunodeficiency virus (FIV TM-2 strain: 3000 cpm/well) were added to each well. The cells were cultured with 1.5 mL RPMI medium supplemented with 10% fetal bovine serum, 2 μg/mL polybrene, 100 unit/mL human recombinant IL-2 and 50 μM 2-mercaptoethanol in CO2 incubator at 37° C.
{circle over (1)} Preparation of FIV TM-2 virus: FIV TM-2 was infected to MYA-1 cells (1×10^6 cells). The cells were cultured in 10 mL RPMI medium supplemented with 10% fetal bovine serum, 2 μg/mL polybrene, 100 unit/ml human recombinant IL-2 and 50 μM 2-mercaptoethanol in CO2 incubator at 37° C. Every 1-2 days, the cells were separated from the supernatant by centrifugation and continued culture with new culture medium. Each of the supernatant was filtrated by 0.45 μm filter, measured RT activity, and stored at as −80° C. as FIV stock virus.
(2) Every 1-2 days, the supernatants were measured the amount of the virus by RT activity (as same as experimental example 2).

The mark [2] stands for this setting: Human immunodeficiency virus 1, 120 h, Molt-4 cells, RT activity of supernatant at 5 days postinfection.
Setting [3] is: Human immunodeficiency virus 2, 120 h, Molt-4 cells, RT activity of supernatant at 5 days postinfection.

A word on the EC50: it is the concentration giving half of the maximal effect.

The structures appear in SMILES notation. Values after ≈ are worked out from the molar mass of the structure shown. Like-named read-outs stand apart in the source and are kept apart here.

On to `Nc1ccn(C2CSC(CO)O2)c(=O)n1` (single isomer, unassigned; (-)) [Lamivudine, (−)-2′,3+-dideoxy-3′-thiacytidine], for which the 50% effective concentration (EC50) in the experiment with HIV-1 NL432 (setting [2]) turned out to be 8.4 ng/mL (≈ 0.0366 µM); in the experiment on HIV-2 Rod (setting [3]) it was 22 ng/mL (≈ 0.096 µM); with SIVmac MA239, 9.1 ng/mL (≈ 0.0397 µM); in the experiment on SIVagm SA212, 22 ng/mL (≈ 0.096 µM); with HIV (HTLV-IIIB strain), 38 ng/mL.
As for `O=C(C=C(O)c1nc[nH]n1)c1ccc(Cc2ccc(F)cc2)o1` [Compound I-16, 1-[5-(4-Fluorobenzyl)furan-2-yl]-3-hydroxy-3-(1H-1,2,4-triazol-3-yl)propenone], the half-maximal effective concentration (EC50) in the experiment with HIV-1 NL432 (setting [2]) was 57 ng/mL (≈ 0.182 µM); with HIV-2 Rod (setting [3]), 35 ng/mL (≈ 0.112 µM); with SIVmac MA239, 57 ng/mL (≈ 0.182 µM); in the experiment with SIVagm SA212, 44 ng/mL (≈ 0.14 µM); in experiment [1], 300 ng/mL (≈ 0.958 µM).
As for `Cc1cn([C@H]2C=C[C@@H](CO)O2)c(=O)[nH]c1=O` [Stavudine], the EC50 with HIV-1 NL432 (Human immunodeficiency virus 1, MOLT-4, 120 h) amounted to 6.1 ng/mL (≈ 0.0272 µM); in the experiment on HIV-2 Rod (Human immunodeficiency virus 2, MOLT-4, 120 h), 4.1 ng/mL (≈ 0.0183 µM); in the experiment with SIVmac MA239, 3.4 ng/mL (≈ 0.0152 µM); with SIVagm SA212, 4.5 ng/mL (≈ 0.0201 µM); in the experiment with HIV (HTLV-IIIB strain) it was 50 ng/mL.
On to `Cc1cn(C2CC(N=[N+]=[N-])C(CO)O2)c(=O)[nH]c1=O` (stereo not drawn) [Zidovudine, 3′-azido-3′-deoxycytimidine], for which the EC50 was 0.51 ng/mL (≈ 0.00191 µM) in the experiment with HIV-1 NL432 (setting [2]); 0.28 ng/mL (≈ 0.00105 µM) with HIV-2 Rod (setting [3]); 0.35 ng/mL (≈ 0.00131 µM) in the experiment with SIVmac MA239; 0.36 ng/mL (≈ 0.00135 µM) with SIVagm SA212; 48 ng/mL (≈ 0.18 µM) in experiment [1]; 1.8 ng/mL in the experiment on HIV (HTLV-IIIB strain).
